Source: US12059458B2, “Peptides and combination of peptides and scaffolds for use in immunotherapy against renal cell carcinoma (RCC) and other cancers” (Immatics Biotechnologies GmbH, priority 2015, dated 2024)

Key:
[1] = tested on: CD8+ T cells of healthy HLA-A*02 donors; assay: In vitro immunogenicity: T-cell priming with aAPCs loaded with peptide/MHC complexes and anti-CD28 antibody, pMHC multimer readout; type: cell-based, human; conditions: for Wells positive [%]: Table 10B; for donors: percentage of positive donors; for donors / wells: Table 10A; for wells: percentage of positive wells
From the text: In order to obtain information regarding the immunogenicity of the TUMAPs of the present invention, the inventors performed investigations using an in vitro T-cell priming assay based on repeated stimulations of CD8+ T cells with artificial antigen presenting cells (aAPCs) loaded with peptide/MHC complexes and anti-CD28 antibody.
In order to perform in vitro stimulations by artificial antigen presenting cells loaded with peptide-MHC complex (pMHC) and anti-CD28 antibody, the inventors first isolated CD8+ T cells from fresh HLA-A*02 leukapheresis products via positive selection using CD8 microbeads (Miltenyi Biotec, Bergisch-Gladbach, Germany) of healthy donors obtained from the University clinics Mannheim, Germany, after informed consent.
PBMCs and isolated CD8+ lymphocytes were incubated in T-cell medium (TCM) until use consisting of RPMI-Glutamax (Invitrogen, Karlsruhe, Germany) supplemented with 10% heat inactivated human AB serum (PAN-Biotech, Aidenbach, Germany), 100 U/ml Penicillin/100 μg/ml Streptomycin (Cambrex, Cologne, Germany), 1 mM sodium pyruvate (CC Pro, Oberdorla, Germany), 20 μg/ml Gentamycin (Cambrex). 2.5 ng/ml IL-7 (PromoCell, Heidelberg, Germany) and 10 U/ml IL-2 (Novartis Pharma, Nümberg, Germany) were also added to the TCM at this step.
Generation of pMHC/anti-CD28 coated beads, T-cell stimulations and readout was performed in a highly defined in vitro system using four different pMHC molecules per stimulation condition and 8 different pMHC molecules per readout condition.
The purified co-stimulatory mouse IgG2a anti human CD28 Ab 9.3 (Jung et al., 1987) was chemically biotinylated using Sulfo-N-hydroxysuccinimidobiotin as recommended by the manufacturer (Perbio, Bonn, Germany). Beads used were 5.6 μm diameter streptavidin coated polystyrene particles (Bangs Laboratories, Illinois, USA).
pMHC used for positive and negative control stimulations were A*0201/MLA-001 (peptide […] (SEQ ID NO. 152) from modified Melan-A/MART-1) and A*0201/DDX5-001 ([…] from DDX5 (SEQ ID NO. 153)), respectively.
800.000 beads/200 μl were coated in 96-well plates in the presence of 4×12.5 ng different biotin-pMHC, washed and 600 ng biotin anti-CD28 were added subsequently in a volume of 200 μl. Stimulations were initiated in 96-well plates by co-incubating […] CD8+ T cells with 2×10^5 washed coated beads in 200 μl TCM supplemented with 5 ng/ml IL-12 (PromoCell) for 3 days at 37° C. Half of the medium was then exchanged by fresh TCM supplemented with 80 U/ml IL-2 and incubating was continued for 4 days at 37° C. This stimulation cycle was performed for a total of three times. For the pMHC multimer readout using 8 different pMHC molecules per condition, a two-dimensional combinatorial coding approach was used as previously described (Andersen et al., 2012) with minor modifications encompassing coupling to 5 different fluorochromes. Finally, multimeric analyses were performed by staining the cells with Live/dead near IR dye (Invitrogen, Karlsruhe, Germany), CD8-FITC antibody clone SK1 (BD, Heidelberg, Germany) and fluorescent pMHC multimers. For analysis, a BD LSRII SORP cytometer equipped with appropriate lasers and filters was used. Peptide specific cells were calculated as percentage of total CD8+ cells. Evaluation of multimeric analysis was done using the FlowJo software (Tree Star, Oregon, USA). In vitro priming of specific multimer+ CD8+ lymphocytes was detected by comparing to negative control stimulations.

HLA-A*02:01 = HLA-A*02:01 (Homo sapiens, UniProt P04439, D140Y/D185E/D98H/E176V/E277Q/G131W/G231S/I119V/I121R/I166T/I218V/L300P/L318F/N151K/N90K/P208A/P217A/Q86G/Q94H/R138H/R169H/T345S); assay: MHC binding assay (UV-ligand exchange, beta2m ELISA, peptide exchange yield); conditions: binding to HLA-A*02:01 ranged by peptide exchange yield, β2m ELISA
From the text: Candidate peptides for T cell based therapies according to the present invention were further tested for their MHC binding capacity (affinity). The individual peptide-MHC complexes were produced by UV-ligand exchange, where a UV-sensitive peptide is cleaved upon UV-irradiation, and exchanged with the peptide of interest as analyzed. Only peptide candidates that can effectively bind and stabilize the peptide-receptive MHC molecules prevent dissociation of the MHC complexes. To determine the yield of the exchange reaction, an ELISA was performed based on the detection of the light chain (β2m) of stabilized MHC complexes. The assay was performed as generally described in Rodenko et al. (Rodenko et al., 2006).
96 well MAXISorp plates (NUNC) were coated over night with 2 ug/ml streptavidin in PBS at room temperature, washed 4× and blocked for 1 h at 37° C. in 2% BSA containing blocking buffer. Refolded HLA-A*02:01/MLA-001 monomers served as standards, covering the range of 15-500 ng/ml. Peptide-MHC monomers of the UV-exchange reaction were diluted 100 fold in blocking buffer. Samples were incubated for 1 h at 37° C., washed four times, incubated with 2 ug/ml HRP conjugated anti-β2m for 1h at 37° C., washed again and detected with TMB solution that is stopped with […]. Absorption was measured at 450 nm. Candidate peptides that show a high exchange yield (preferably higher than 50%, most preferred higher than 75%) are generally preferred for a generation and production of antibodies or fragments thereof, and/or T cell receptors or fragments thereof, as they show sufficient avidity to the MHC molecules and prevent dissociation of the MHC complexes.

1 (ALIVSLPYL; listed as Homo sapiens) [compound 1]
Wells positive [%] [1]: + (<20% = +) | Peptide exchange (MHC class I binding score) (HLA-A*02:01): +++ (≥50 = +++)

2 (ILWREVVTL; listed as Homo sapiens) [compound 2]
Wells positive [%] [1]: + (<20% = +) | Peptide exchange (MHC class I binding score) (HLA-A*02:01): +++ (≥50 = +++)

3 (RLLGEVQAL; listed as Homo sapiens) [compound 3]
Wells positive [%] [1]: + (<20% = +) | Peptide exchange (MHC class I binding score) (HLA-A*02:01): ++ (≥20% = ++)

6 (VLFELSKTV; listed as Homo sapiens) [compound 6]
Wells positive [%] [1]: + (<20% = +) | Peptide exchange (MHC class I binding score) (HLA-A*02:01): +++ (≥50 = +++)

7 (FLLSLIDRL; listed as Homo sapiens) [compound 7]
Wells positive [%] [1]: + (<20% = +) | Peptide exchange (MHC class I binding score) (HLA-A*02:01): +++ (≥50 = +++)

9 (ILLQKPDSV; listed as Homo sapiens) [compound 9]
Wells positive [%] [1]: + (<20% = +) | Peptide exchange (MHC class I binding score) (HLA-A*02:01): ++ (≥20% = ++)

15 (ILIKHLVKV; listed as Homo sapiens) [compound 15]
Wells positive [%] [1]: + (<20% = +) | Peptide exchange (MHC class I binding score) (HLA-A*02:01): ++ (≥20% = ++)

16 (FMPEELPQL; listed as Homo sapiens) [compound 16]
Wells positive [%] [1]: + (<20% = +) | Peptide exchange (MHC class I binding score) (HLA-A*02:01): ++ (≥20% = ++)

18 (YVLDLAAKV; listed as Homo sapiens) [compound 18]
Wells positive [%] [1]: ++ (20%-49% = ++) | Peptide exchange (MHC class I binding score) (HLA-A*02:01): +++ (≥50 = +++)

20 (AVANTTFTV; listed as Homo sapiens) [compound 20]
Wells positive [%] [1]: + (<20% = +) | Peptide exchange (MHC class I binding score) (HLA-A*02:01): ++ (≥20% = ++)

22 (FLSPPLPSV; listed as Homo sapiens) [compound 22]
Wells positive [%] [1]: ++ (20%-49% = ++) | Peptide exchange (MHC class I binding score) (HLA-A*02:01): +++ (≥50 = +++)

29 (ILLDLEQAL; listed as Homo sapiens) [compound 29]
Wells positive [%] [1]: + (<20% = +) | Peptide exchange (MHC class I binding score) (HLA-A*02:01): +++ (≥50 = +++)

34 (ELNNQNFYL; listed as Homo sapiens) [compound 34]
Wells positive [%] [1]: ++ (20%-49% = ++) | Peptide exchange (MHC class I binding score) (HLA-A*02:01): +++ (≥50 = +++)

36 (SLFGKKYIL; listed as Homo sapiens) [compound 36]
Wells positive [%] [1]: ++ (20%-49% = ++) | Peptide exchange (MHC class I binding score) (HLA-A*02:01): ++ (≥20% = ++)

94 (ILHHKVYDL; listed as Homo sapiens) [compound 94]
Wells positive [%] [1]: ++ (20%-49% = ++) | Peptide exchange (MHC class I binding score) (HLA-A*02:01): ++ (≥20% = ++)

95 (KLTDVGIATL; listed as Homo sapiens) [compound 95]
Wells positive [%] [1]: ++++ (> = 70% = ++++) | Peptide exchange (MHC class I binding score) (HLA-A*02:01): ++ (≥20% = ++)

98 (KIPPVSPSI; listed as Homo sapiens) [compound 98]
Wells positive [%] [1]: ++++ (> = 70% = ++++) | Peptide exchange (MHC class I binding score) (HLA-A*02:01): ++ (≥20% = ++)

123 (YVDPVITSI; listed as Homo sapiens) [compound 123]
donors [1]: ++++ (> = 70% = ++++) | wells [1]: + (<20% = +)

127 (VLAPLFVYL; listed as Homo sapiens) [compound 127]
donors [1]: ++++ (> = 70% = ++++) | wells [1]: ++ (20%-49% = ++)

143 (ALFVRLLALA; listed as Homo sapiens) [compound 143]
donors [1]: +++ (50%-69% = +++) | wells [1]: + (<20% = +)
